This note sets out measurements from US20050069531A1, “Use of hyaluronidase in the manufacture of an ophthalmic preparation for liquefying vitreous humor in the treatment of eye disorders” (priority 1995, published 2005).

The test system of the series is eyes of rabbits. To be noted: rabbit, intravitreal. The source says: Fifty-two (52) healthy rabbits of the New Zealand Cross Variety (26 male, 26 female) weighing 1.5 kg to 2.5 kg, were individually marked for identification and were housed individually in suspended cages. The animals received a commercially available pelleted rabbit feed on a daily basis, with tap water available ad libitum.
The animals were divided into thirteen groups of 4 animals each (2 male, 2 female). Two animals in each group (1 male, 1 female) were selected for pretreatment fundus photography and fluorescein angiography.
The fundus photography was performed by restraining the animals and visualizing the optic nerve, retinal arcades with fundus with a KOWA® RC-3 Fundus Camera loaded with Kodak Gold 200 ASA film.
The fluorescein angiography involved a 1.5 ml injection of 2% sterile fluorescein solution via the marginal ear vein. Approximately 30 seconds post-injection the fluorescein was visualized upon localization of the optic nerve, retinal vessels and fundus.
The following day, each animal was anesthetized by intravenous administration of a combination of 34 mg/kg of ketamine hydrochloride and 5 mg/kg xylazine. The eyelids were retracted using a lid speculum, and the eyes were disinfected with an iodine-providone wash.
The experimental treatments administered to each animal group were as follows:
The day following the injections (Day 1), the 26 animals which were subjected to the fundus photography and fluorescein angiography were observed using the same methods as for the pre-dose examination.
The eyes were then surgically removed and placed in a fixture solution of 2.5% glutaraldehyde with 0.1 M phosphate buffered saline at pH 7.37.
Alternatively, one randomly selected rabbit was euthanized by pentobarbital injection but then fixed by intracardiac injection of the glutaraldehyde solution into the left ventricle to determine the effect of the fixation procedure on the histology findings within the enucleated eyes.
On Day 7, the 13 female rabbits that had been previously photographed and angiography performed were subjected to the same observations following the methods previously described.
The remaining 26 animals were euthanized as described above 7 days after dosing. The eyes were fixed in the same manner as those which had been fixed on day 2. Also, one randomly selected rabbit was subjected to the same intracardiac glutaraldehyde fixation procedure described hereabove for the previously randomly selected animal.
The eyes of the animals treated in this example were examined grossly and microscopically for evidence of treatment-related toxicities.

Like-named read-outs stand apart in the source and are kept apart here.

In the case of thimerosal [BSS+thimerosal], the “evidence of treatment-related toxicity in the eyes (gross and microscopic examination)” value is on record as “free of toxicity” (0.0075 mg thimerosal in BSS, day 2 post-dose); “breakdown of the blood-retinal barrier” (0.0075 mg thimerosal in BSS, day 7 post-dose); “severe treatment-related toxic effects” (0.025 mg thimerosal in BSS, days 2 and 7 post-dose). For the same substance, the “toxic effects observed on day 7 (FIG. 3)” value (0.0075 mg thimerosal in BSS, day 7) is given as “significant toxic effects”. Besides, the “toxic effects in the eyes of rabbits (conclusion)” value (at the dosages tested) was “do cause toxic effects”.
